pIC50: −log10 of the molar value.
How the values were obtained:
[1] = biological target: T1, phosphodiesterase 4A (Homo sapiens, UniProt P27815); experiment: Recombinant human PDE4A assay; assay type: biochemical
T1 construct: made in house; host or cells: E. coli

[2] = tested on: anaphylactic bronchoconstriction; experiment: Effect on anaphylactic bronchoconstriction response; assay type: in vivo, guinea pig; details: oral administration one hour before the antigen; from AUC suppression ratio
Procedure: For passive sensitization, 1 ml of rabbit anti-ovalbumine serum was peritoneally administered to male Hartley guinea pigs, and 16 to 24 hours later, ovalbumine was intravenously administered as the antigen. The induced anaphylactic bronchoconstriction was measured by the modified Konzett and Rossler method. Each of the tracheal cannulae was completely closed at the end of the measurement and the measured constriction was defined as the maximum constriction. Changes in the constriction were measured as percentage in the maximum constriction. The area under the curve (AUC) indicating the strength of the response was calculated by an image analyzer (MCID system, Imaging Research Company). The test compound was orally administered one hour before the antigen administration, and the ID50 value of each drug was calculated from the AUC suppression ratio by linear regression analysis.

[3] = tested on: cAMP-specific phosphodiesterase (PDE IV); experiment: Inhibition of the PDE IV enzyme derived from a dog trachea; assay type: biochemical; details: test compound 10^−6 M; PDE IV from dog tracheal smooth muscle; substrate cAMP 1 μM
Summary of the method: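 Enzyme purified from dog tracheal smooth muscle; [3H]cAMP substrate at 1 μM final in 50 mM BES pH 7.2, 1 mM MgCl2, 0.1 mg/ml soybean trypsin inhibitor, 30° C for 10–30 min, 1.7% DMSO final. After HCl stop, product converted to adenosine by 5′-nucleotidase, separated on DEAE-Sephadex and scintillation-counted.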

[4] = tested on: guinea pig bronchial smooth muscle; experiment: Suppression of passive Schultz-Dale response in guinea pig bronchial smooth muscle; details: Cavia porcellus; ovalbumin-induced constriction of passively sensitized guinea pig tracheal strips; read-out: IC50 (concentration causing 50% relaxation)
Procedure: For passive sensitization, rabbit anti-ovalbumin serum prepared by the method of Kohda et al. [Nichiyakurishi, 66, 237 (1970)] was peritoneally administered to male Hartley guinea pigs weighing 350 to 500 g, and 24 hours later the tracheae thereof were removed to be used for the experiment. Zig-zag strips were prepared from the tracheae in accordance with the method of Emmerson and Mackay [J. Pharm. Pharmacol., 31, 798 (1979)], and they were suspended in a Krebs-Henseleit solution with aeration of a mixture of 95% oxygen and 5% carbon dioxide at 37° C. After stabilizing for approximately one hour, ovalbumin, as the antigen, was added to the mixture (at a final concentration of […]), and the constriction of the muscle was recorded by a recorder (TYPE 3066; Yokokawa Hokushin Denki) via an isotonic transducer (TD-112S; Nippon Koden). A test compound was cumulatively added to the mixture after the constriction had reached the plateau, and the relaxation ratio was determined. The concentration (IC50) causing 50% relaxation was calculated by linear regression analysis.

[5] = tested on: histamine-induced bronchoconstriction; experiment: Suppression of histamine-induced bronchoconstriction response in guinea pig; assay type: in vivo; details: intravenous administration; histamine 10 μg/kg iv
Procedure: This test was carried out by a modified Konzett and Rossler method. Under anesthesia with urethane (1.2 g/kg, ip), male Hartley guinea pigs (body weight: 500 to 600 g) were fixed on plates by strings. After undertaking a tracheotomy, cannulae were inserted to the tracheae, right carotid arteries, and left cervical veins. The spontaneous respiration of the guinea pigs was stopped by the administration of gallamie (10 mg/kg) from the left cervical veins via the cannulae. The cannulae inserted into the tracheae were connected to a bronchospasm transducer (Ugo Basile) and a respirator (TB-101, Takashima-shoten, 60 to 70 strokes/minutes, output: 5 cc) and the air overflow volume was recorded by a polygraph (RM-45, Nippon Koden) to measure the amount of bronchoconstriction. For measuring blood pressure, the cannulae inserted in the right carotid arteries were connected to a blood-pressure transducer. Constant bronchoconstriction occurred when histamine (10 μg/kg, iv) was administered at 3 minutes intervals, and the induced bronchoconstriction was used as the control. A test compound was intravenously administered, and one minute later histamine (10 μg/kg, iv) was administered. The test compound was cumulatively administered at 5 minutes intervals, and the bronchoconstriction in control and that after the administration of the test compound was compared.

T1 sequence (P27815 224-886 limits assumed): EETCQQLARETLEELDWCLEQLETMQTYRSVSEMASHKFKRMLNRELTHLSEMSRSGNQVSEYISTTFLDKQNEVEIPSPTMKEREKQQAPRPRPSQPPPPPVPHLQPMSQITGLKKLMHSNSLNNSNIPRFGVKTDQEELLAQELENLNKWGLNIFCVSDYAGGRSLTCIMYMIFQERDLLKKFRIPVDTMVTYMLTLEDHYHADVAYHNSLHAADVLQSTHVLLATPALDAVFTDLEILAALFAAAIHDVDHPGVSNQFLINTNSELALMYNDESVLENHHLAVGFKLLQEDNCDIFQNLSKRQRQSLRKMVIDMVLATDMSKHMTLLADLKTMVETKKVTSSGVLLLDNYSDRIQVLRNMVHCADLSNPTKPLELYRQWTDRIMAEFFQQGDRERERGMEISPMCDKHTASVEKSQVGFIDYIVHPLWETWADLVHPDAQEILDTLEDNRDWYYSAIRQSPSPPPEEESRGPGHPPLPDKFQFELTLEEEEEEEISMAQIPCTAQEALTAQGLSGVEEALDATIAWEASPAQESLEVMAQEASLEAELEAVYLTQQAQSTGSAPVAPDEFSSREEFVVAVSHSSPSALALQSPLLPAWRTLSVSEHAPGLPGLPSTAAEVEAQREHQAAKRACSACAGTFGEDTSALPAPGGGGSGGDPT

Compound | Enzyme Inhibitory Activity (%, 10^−7 M) [1] | ID50 value (50% inhibitory dose) [2] | Enzyme Inhibitory Activity (%, 10^−6 M) [3] | pIC50 [4] | ID50 value (50% inhibitory dose) [5] | melting point
COc1ccc(C(=O)Cc2ccncc2)c2c1OC1(CCCC1)C2.Cl [Compound 100, 7-Methoxy-4-[1-oxo-2-(4-pyridyl)ethyl]-spiro[2,3-dihydrobenzofuran-2,1′-cyclopentane].hydrochloride] | 99% | 0.53 mg/kg | – | – | – | –
COc1ccc(/C=C/c2ccncc2)c2c1OC(C)(C)C2 [Compound 68, (E)-7-Methoxy-2,2-dimethyl-4-[2-(4-pyridyl)ethenyl]-2,3-dihydrobenzofuran] | – | – | 80% | 5.80 | 0.076 mg/kg | 145 to 149 °C

Reference: US6716987B1, “Derivatives of benzofuran or benzodioxazole compounds” (Kyowa Hakko Kogyo Co., Ltd., priority 1995, dated 2004)
